Assay results as given in patent publication US11690899B2, “Combination of bactericidal agent with a lysosomotropic alkalinising agent for the treatment of a bacterial infection” (priority 2015, dated 2023).

How the values were obtained:
[1] = tested on: S. aureus Cowan; test: S. aureus Cowan-infected A549 cells treated with flucloxacillin and lysosomotropic alkalinizing agents (intracellular persisters, SCVs); type: cell-based, Staphylococcus aureus; conditions: for effect on phagolysosomal pH: infected host cells
Experimental: Reduction of S. aureus persisters through phagolysosome alkalinization. S. aureus Cowan-infected A549 cells were treated with flucloxacillin alone (control) or supplemented with lysosomotropic alkalinizing agents (chloroquine (a), bafilomycin A1 (b) and ammonium chloride (c)). Colony phenotypes of viable intracellular persisting bacteria were determined and enumerated at indicated time points. Data were pooled from three independent experiments done in triplicates, mean±SEM. Two-way ANOVA found the factors time and treatment to be significant (p-value<0.01).
MSSA strain Cowan is highly invasive, but not cytotoxic which allowed maintaining this strain intracellularly over several days in the lung epithelial cell line A549. Extracellular bacteria were killed by adding a high dose of flucloxacillin to the infected host cells. Flucloxacillin is typically used to treat S. aureus endocarditis in patients. Absence of extracellular bacteria was confirmed by sterility of culture supernatants. Host cells were lysed to release intracellular bacteria and colony counts, as well as colony phenotypes, were determined at various time points. […] The number of viable intracellular persisting bacteria decreased during the course of infection while the frequency of SCVs increased and reached 5.6% after seven days.
No differences in total colony counts between control and treated cells were observed. […] No significant differences in host cell viability were observed after treatment with the alkalinizing agents.
Growth resumption of S. aureus persisters through treatment of host cells with chloroquine was assessed. […] We observed no dividing bacteria in infected host cells without chloroquine treatment.

[2] = tested on: S. aureus Cowan; test: In vivo infection model: mice infected intraperitoneally with S. aureus Cowan; set-up: species or system Staphylococcus aureus
Experimental: Mice were infected with S. aureus Cowan intraperitoneally. Six hours and two days post-infection mice were treated with 1 mg flucloxacillin and 0.2 mg chloroquine (+CQ). Mice treated with flucloxacillin only served as control (−CQ). †, sacrifice (a). Colony phenotypes of bacteria recovered from target tissues (b), peripheral blood and peritoneal lavage (c) were determined and enumerated. Each point represents one mouse. Horizontal bars indicate mean±SEM, n=11 mice per group. PL, peritoneal lavage. Two-way ANOVA found the factor treatment to be significant (p-value<0.01).
Mice infected with S. aureus Cowan were treated with flucloxacillin alone (control), or in combination with chloroquine (FIG. 5a).

Row | Structure (SMILES) | effect on phagolysosomal pH [1] | bacterial cell division (transmission electron microscopy) ([1]; three days post-infection, vs host cells without chloroquine) | frequency of SCVs in various organs and compartments ([2]; 1 mg flucloxacillin and 0.2 mg chloroquine at six hours and two days post-infection vs flucloxacillin only) | absolute bacterial numbers ([2]; flucloxacillin with vs without chloroquine)
1 | Cl.N [ammonium chloride] | neutralized the phagolysosomal pH | – | – | –
2 | CCN(CC)CCCC(C)Nc1ccnc2cc(Cl)ccc12 (stereo not drawn) [Chloroquine, chloroquine] | neutralized the phagolysosomal pH | facilitated bacterial cell division | significantly reduced | comparable
3 | CO/C1=C\C(C)=C\[C@@H](C)[C@@H](O)[C@@H](C)C/C(C)=C/C=C/[C@H](OC)[C@@H]([C@@H](C)[C@@H](O)[C@H](C)[C@@]2(O)C[C@@H](O)[C@H](C)[C@@H](C(C)C)O2)OC1=O [bafilomycin A1] | neutralized the phagolysosomal pH | – | – | –
